The results in this text go back to ChEMBL document CHEMBL3880429, “Aminopyrimidine compounds and their salts, process for preparation and pharmaceutical use thereof” (2012).

The source made the active and inactive calls. The calls are words filed in the database; no cut-off is given here.

The nature of test [1]: Antitumor activity against human K562 cells xenografted in BALB/cA nude mouse assessed as tumor growth at 150 mg/kg, po qd administered via gavage for 21 days relative to control. The class given is functional.
A short description of test [2]: Ratio of IC50 for human HL60 cells to IC50 for Bcr-Abl in human K562 cells.
Test [3] concerns the target Bcr/Abl fusion protein (Homo sapiens) (UniProt P00519+P11274). In words: Potency index, ratio of imatinib IC50 to compound IC50 for Bcr-Abl in human K562 cells. In kind it is cell-based.
Test [4] has as its system K562. In words: Antitumor activity against human K562 cells xenografted in BALB/cA nude mouse assessed as extinction of tumor at 150 mg/kg, po qd administered via gavage for 21 days. The class given is functional, organism-based. A general note: Xenograft models place foreign cells or tissue in a host animal.
Test [5] in a line: Cytotoxicity against human HL60 cells assessed as inhibition of cell proliferation after 48 hrs by MTT assay. Particulars: HL-60, 48 h. In kind it is functional, cell-based. (Tetrazolium dyes change colour on reduction, which living cells bring about.)
In test [6] the test system is K562. In words: Antitumor activity against human K562 cells xenografted in po dosed BALB/cA nude mouse assessed as tumor growth inhibition administered as qd via gavage for 21 days. In kind it is functional, organism-based.
A short description of test [7]: Antitumor activity against human K562 cells xenografted in BALB/cA nude mouse assessed as tumor growth at 37.5 mg/kg, po qd administered via gavage for 21 days relative to control. The class given is functional.

Sequence of Bcr/Abl fusion protein (Homo sapiens) (P00519 whole entry, looked up, the tested form may be a part): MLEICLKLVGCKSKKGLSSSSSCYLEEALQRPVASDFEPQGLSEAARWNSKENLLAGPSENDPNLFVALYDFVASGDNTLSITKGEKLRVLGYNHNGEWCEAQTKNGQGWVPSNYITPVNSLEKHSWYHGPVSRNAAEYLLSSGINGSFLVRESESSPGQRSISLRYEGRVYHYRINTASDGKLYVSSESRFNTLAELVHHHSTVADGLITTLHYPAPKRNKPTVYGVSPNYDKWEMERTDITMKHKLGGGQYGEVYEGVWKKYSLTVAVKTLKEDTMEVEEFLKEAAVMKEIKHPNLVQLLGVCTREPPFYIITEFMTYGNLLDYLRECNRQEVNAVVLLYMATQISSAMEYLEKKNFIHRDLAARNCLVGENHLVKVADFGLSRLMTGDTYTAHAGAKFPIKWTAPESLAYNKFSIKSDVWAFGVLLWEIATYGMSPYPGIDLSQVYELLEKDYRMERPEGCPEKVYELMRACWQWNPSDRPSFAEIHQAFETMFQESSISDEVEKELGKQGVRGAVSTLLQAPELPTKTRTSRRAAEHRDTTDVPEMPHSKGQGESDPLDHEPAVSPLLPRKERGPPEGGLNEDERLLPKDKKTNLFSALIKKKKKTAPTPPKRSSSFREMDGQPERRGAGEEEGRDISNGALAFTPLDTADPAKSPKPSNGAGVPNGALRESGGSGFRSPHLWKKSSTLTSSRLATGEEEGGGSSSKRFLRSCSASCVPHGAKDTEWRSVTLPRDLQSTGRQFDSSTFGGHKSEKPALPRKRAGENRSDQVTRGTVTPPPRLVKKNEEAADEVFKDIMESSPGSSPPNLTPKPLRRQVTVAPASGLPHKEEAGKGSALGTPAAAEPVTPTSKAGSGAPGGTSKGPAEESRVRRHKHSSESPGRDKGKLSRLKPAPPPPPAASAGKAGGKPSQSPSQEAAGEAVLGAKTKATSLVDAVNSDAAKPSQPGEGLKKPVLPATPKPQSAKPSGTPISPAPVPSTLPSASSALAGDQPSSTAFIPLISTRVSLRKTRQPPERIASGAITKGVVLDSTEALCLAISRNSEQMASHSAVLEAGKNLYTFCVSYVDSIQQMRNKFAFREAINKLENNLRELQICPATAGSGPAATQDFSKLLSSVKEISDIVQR
Sequence of Bcr/Abl fusion protein (Homo sapiens) (P11274 whole entry, looked up, the tested form may be a part): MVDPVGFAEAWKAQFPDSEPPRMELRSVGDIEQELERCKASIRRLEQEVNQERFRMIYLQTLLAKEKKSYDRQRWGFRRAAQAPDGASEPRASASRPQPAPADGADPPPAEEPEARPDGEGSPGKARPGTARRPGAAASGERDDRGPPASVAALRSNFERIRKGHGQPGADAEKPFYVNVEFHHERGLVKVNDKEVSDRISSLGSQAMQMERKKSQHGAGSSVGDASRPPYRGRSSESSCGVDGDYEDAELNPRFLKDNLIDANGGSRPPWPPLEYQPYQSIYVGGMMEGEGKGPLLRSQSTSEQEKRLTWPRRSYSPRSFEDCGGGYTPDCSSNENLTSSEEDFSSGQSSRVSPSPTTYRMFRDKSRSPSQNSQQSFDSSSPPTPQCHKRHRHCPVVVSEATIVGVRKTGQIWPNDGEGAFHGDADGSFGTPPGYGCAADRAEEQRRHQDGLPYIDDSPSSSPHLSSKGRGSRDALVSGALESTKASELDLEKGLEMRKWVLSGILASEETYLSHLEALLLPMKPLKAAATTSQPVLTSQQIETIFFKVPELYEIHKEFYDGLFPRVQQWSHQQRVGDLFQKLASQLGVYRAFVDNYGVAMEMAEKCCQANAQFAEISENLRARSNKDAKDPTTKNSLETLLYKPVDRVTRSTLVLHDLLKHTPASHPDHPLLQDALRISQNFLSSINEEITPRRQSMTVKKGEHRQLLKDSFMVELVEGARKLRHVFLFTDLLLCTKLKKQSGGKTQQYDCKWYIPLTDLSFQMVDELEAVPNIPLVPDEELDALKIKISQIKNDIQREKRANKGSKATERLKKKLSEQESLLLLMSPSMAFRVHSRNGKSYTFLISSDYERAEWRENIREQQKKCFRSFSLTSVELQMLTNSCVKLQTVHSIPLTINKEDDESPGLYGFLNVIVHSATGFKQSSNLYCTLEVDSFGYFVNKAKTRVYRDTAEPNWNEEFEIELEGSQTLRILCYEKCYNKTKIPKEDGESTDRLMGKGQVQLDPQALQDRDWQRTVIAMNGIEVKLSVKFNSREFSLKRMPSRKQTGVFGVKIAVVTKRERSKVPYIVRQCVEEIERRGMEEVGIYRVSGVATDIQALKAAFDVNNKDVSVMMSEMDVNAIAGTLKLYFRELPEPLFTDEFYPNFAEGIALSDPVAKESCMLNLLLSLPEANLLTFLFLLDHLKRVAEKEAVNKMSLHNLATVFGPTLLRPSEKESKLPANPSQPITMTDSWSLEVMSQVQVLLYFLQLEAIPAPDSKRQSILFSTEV

Turning to `CS(=O)(=O)O.Cc1ccc(NC(=O)c2ccc(CN3CCN(C)CC3)cc2)cc1Nc1nccc(-c2cccnc2)n1` [IMATINIB MESYLATE], in test [1], the T/C is listed as 34.2 - 117.7%.
`CS(=O)(=O)O.Cc1ncc(NC(=O)c2ccc(CN3CCN(C)CC3)c(Cl)c2)cc1Nc1nccc(-c2cccnc2)n1`: in test [1], the T/C is 47.4%. The “Ratio IC50” value in test [2] was 125; in test [3] it was 4.
As for `CS(=O)(=O)O.Cc1ncc(NC(=O)c2ccc(CN3CCN(C)CC3)c(C(F)(F)F)c2)cc1Nc1nccc(-c2cccnc2)n1`, the results for the T/C in test [1] and in test [7] were 0% and 40.4%, respectively. The outcome with K562 [4] was Active. Also, the half-maximal inhibitory concentration (IC50) in test [5] is 10 µM. The TGI entry in the test on K562 [6] is “Dose-dependent effect”.

As usually defined, the T/C is the ratio of treated to control. What is called IC50 is the midpoint of a concentration-inhibition curve.
